Where a name gives a salt, the structure may show the parent alone.

Usually solubility stands for the concentration that dissolves in the medium under given conditions. Low readings indicate a poorly soluble substance, high ones a readily soluble substance.

The data set can be described thus: Solubility test at pH=4 from phosphate buffer pH 6 0.1M, by HPLC. The data set is classed as physicochemical. The following applies: for solubility at 5 min: aqueous buffer, thermodynamic from solid, phosphate buffer pH 6 0.1M, HPLC, first figure of the S/pH cell, the pH of the sample is the second; for pH (of the solubility sample): second figure of the S/pH cell, pH noted for the solubility sample. On the procedure:
The results for solubility, S, and pH are shown in the table below and are expressed in mg/ml.
A phosphate buffer, pH6, 0.1M, was prepared by adding 6.15 ml of 0.1M Na2HPO4 to 43.85 ml of 0.1M NaH2PO4. The solution was made up to 100 ml with filtered water using a Millipore system (trade mark).
Reference (Test Product in a Concentration in which the Latter is Soluble and which Acts as an Internal Reference)
About 0.2 mg (in a boat) was weighed out exactly and diluted in 1 ml of H2O/CH3CN: (50:50), i.e. 0.2 mg/ml, then the sample was subjected to ultrasound for 5 minutes.
About 4 mg (in a boat) was weighed out exactly and diluted in 400 μl (i.e. 10 mg/ml) of pH6 phosphate buffer (0.1M), then the sample was subjected to ultrasound for 5 minutes.
The pH was noted and if the pH was below 4, 1 μl of NaOH 1N was added (from 1 μl in 1 μl) until the pH was more than 4, then the pH was noted again. The solution (0.45 μm) was filtered then if necessary diluted with the phosphate buffer pH6. (If the product re-precipitated after diluting, the diluted sample was ignored, the mother solution was used and the solubility was determined at a wavelength other than λmax, to avoid saturating the signal.
The solubility of the compound was then determined by HPLC under the following conditions:
Instrument: Agilent 1100 chromatograph
Column temperature: 30° C. Flow rate: 0.8 ml/min Detection: λ=230 nm Injection volume: 5 μl

Take `CCc1cc2ccccn2c1C(=O)c1ccc(CCCN(CC)CC)cc1.O=C(O)C(=O)O` [compound 2, (2-ethylindolizin-3-yl){4-[3-(diethylamino)propyl]phenyl}methanone oxalate]: the solubility at 5 min was determined as 7470 µg/mL and the “pH (of the solubility sample)” value was found to be 4.07. As for `CCCCN(CCCC)CCCc1ccc(C(=O)c2c(CC)cc3ccccn23)cc1` [compound 18, {4-[3-(dibutylamino)propyl]phenyl}(2-ethylindolizin-3-yl)methanone hydrochloride], the solubility at 5 min is 6510 µg/mL and the “pH (of the solubility sample)” value was determined as 5.42. For `CCCCc1cc2ccc(C)cn2c1C(=O)c1ccc(CCCN(CCC)CCC)cc1` [compound 43, (2-butyl-6-methylindolizin-3-yl){4-[3-(dipropylamino)propyl]phenyl}methanone hydrochloride], in that order: 4460 µg/mL and 5.65. Take `CCCN(CCC)CCCCc1ccc(C(=O)c2c(C)cc3ccccn23)cc1` [compound 15, {4-[4-(dipropylamino)butyl]phenyl}(2-methylindolizin-3-yl)methanone hydrochloride]: the solubility at 5 min was 1560 µg/mL and the “pH (of the solubility sample)” value is on record as 6.33. For `CCCc1cc2ccccn2c1C(=O)c1ccc(CCCN(CC)CC)cc1.Cl` [compound 3, {4-[3-(diethylamino)propyl]phenyl}(2-propylindolizin-3-yl)methanone hydrochloride], in that order: > 10000 µg/mL and 5.82. For `CCCN(CC)CCCCc1ccc(C(=O)c2c(C(C)C)cc3ccccn23)cc1` [compound 27, (4-{4-[ethyl(propyl)amino]butyl}phenyl)(2-isopropylindolizin-3-yl)methanone oxalate], in that order: 2170 µg/mL and 6.5. Turning to `CCCN(CCC)CCCCc1ccc(C(=O)c2c(CC)cc3ccccn23)cc1` [compound 11, {4-[4-(dipropylamino)butyl]phenyl}(2-ethylindolizin-3-yl)methanone hydrochloride], the solubility at 5 min was > 10000 µg/mL and the “pH (of the solubility sample)” value came out at 5.82.

With `CCCc1cc2ccccn2c1C(=O)c1ccc(CCCCN(CC)CC)cc1.Cl` [compound 6, {4-[4-(diethylamino)butyl]phenyl}(2-propylindolizin-3-yl)methanone hydrochloride], the solubility at 5 min is > 10000 µg/mL and the “pH (of the solubility sample)” value came out at 5.79. Regarding `CCCCc1cc2ccccn2c1C(=O)c1ccc(CCCCN(CCC)CCC)cc1` [compound 10, (2-butylindolizin-3-yl){4-[4-(dipropylamino)butyl]phenyl}methanone hydrochloride], the solubility at 5 min was > 10000 µg/mL and the “pH (of the solubility sample)” value is on record as 5.81.

Turning to `CCc1cc2ccccn2c1C(=O)c1ccc(CCCCN(CC)CC)cc1.O=C(O)C(=O)O` [compound 5, {4-[4-(diethylamino)butyl]phenyl}(2-ethylindolizin-3-yl)methanone oxalate], the solubility at 5 min was > 10000 µg/mL and the “pH (of the solubility sample)” value is recorded as 3.96. For `CCCCN(CCCC)CCCCc1ccc(C(=O)c2c(CCC)cc3ccccn23)cc1` [compound 22, {4-[4-(dibutylamino)butyl]phenyl}(2-propylindolizin-3-yl)methanone oxalate], in that order: 4080 µg/mL and 4.58.

On to `CCCCc1cc2ccccn2c1C(=O)c1ccc(CCCN(CCC)CCCC)cc1` [compound 33, (2-butylindolizin-3-yl)(4-{3-[butyl(propyl)amino]propyl}phenyl)methanone oxalate], for which the solubility at 5 min came to 3880 µg/mL and the “pH (of the solubility sample)” value is on record as 5.36. For `CCCN(CC)CCCCc1ccc(C(=O)c2c(C)cc3ccccn23)cc1` [compound 28, (4-{4-[ethyl(propyl)amino]butyl}phenyl)(2-methylindolizin-3-yl)methanone hydrochloride], in that order: 1540 µg/mL and 7.01. The matching figures for `CCCCc1cc2ccc(CC)cn2c1C(=O)c1ccc(CCCN(CCC)CCC)cc1` [compound 44, (2-butyl-6-ethylindolizin-3-yl){4-[3-(dipropylamino)propyl]phenyl}methanone hydrochloride]: > 10000 µg/mL and 6.05.

On to `CCCCc1cc2ccccn2c1C(=O)c1ccc(CCCCN(CC)CCC)cc1` [compound 30, (2-butylindolizin-3-yl)(4-{4-[ethyl(propyl)amino]butyl}phenyl)methanone hydrochloride], for which the solubility at 5 min is > 10000 µg/mL and the “pH (of the solubility sample)” value is 5.85. The matching figures for `CCCCc1cc2ccccn2c1C(=O)c1ccc(CCCN(CCOC)CCOC)cc1` [compound 41, (4-{3-[bis(2-methoxyethyl)amino]propyl}phenyl)(2-butylindolizin-3-yl)methanone oxalate]: 7190 µg/mL and 3.95. For `CCCCc1cc2ccccn2c1C(=O)c1ccc(CCCN(CC)CC)cc1.Cl` [compound 1, (2-butylindolizin-3-yl){4-[3-(diethylamino)propyl]phenyl}methanone hydrochloride], in that order: 8810 µg/mL and 5.4. As for `CCCCc1cc2ccccn2c1C(=O)c1ccc(CCCN(C)C)cc1.Cl` [compound 38, (2-butylindolizin-3-yl){4-[3-(dimethylamino)propyl]phenyl}methanone hydrochloride], the solubility at 5 min was determined as 1420 µg/mL. For `CCCc1cc2ccccn2c1C(=O)c1ccc(CCCCN(CC)CCC)cc1` [compound 32, (4-{4-[ethyl(propyl)amino]butyl}phenyl)(2-propylindolizin-3-yl)methanone hydrochloride], the solubility at 5 min was 5640 µg/mL and the “pH (of the solubility sample)” value is listed as 5.60. The matching figures for `CCCCc1cc2ccccn2c1C(=O)c1ccc(CCCN(CCC)CC2CC2)cc1` [compound 35, (2-butylindolizin-3-yl)(4-{3-[(cyclopropylmethyl)(propyl)amino]propyl}phenyl)methanone hydrochloride]: 4400 µg/mL and 4.75. For `CCCc1cc2ccccn2c1C(=O)c1ccc(CCCCN(CCC)CCC)cc1` [compound 16, {4-[4-(dipropylamino)butyl]phenyl}(2-propylindolizin-3-yl)methanone hydrochloride], in that order: > 10000 µg/mL and 5.81. For `CCCCc1cc2ccccn2c1C(=O)c1ccc(CCCN(CCC)CCC)cc1` [compound 7, (2-butylindolizin-3-yl){4-[3-(dipropylamino)propyl]phenyl}methanone hydrochloride], in that order: 8570 µg/mL and 5.65. As to `CCCc1cc2ccccn2c1C(=O)c1ccc(CCCN(CCC)CCC)cc1` [compound 9, {4-[3-(dipropylamino)propyl]phenyl}(2-propylindolizin-3-yl)methanone hydrochloride], the solubility at 5 min is 5290 µg/mL and the “pH (of the solubility sample)” value came out at 5.82. For `CCCCc1cc2ccccn2c1C(=O)c1ccc(CCCN(CC)CCC)cc1` [compound 23, (2-butylindolizin-3-yl)(4-{3-[ethyl(propyl)amino]propyl}phenyl)methanone hydrochloride], in that order: > 10000 µg/mL and 6.06. For the molecule `CCCN(CCC)CCCc1ccc(C(=O)c2c(CC)cc3ccccn23)cc1` [compound 8, {4-[3-(dipropylamino)propyl]phenyl}(2-ethylindolizin-3-yl)methanone hydrochloride], the solubility at 5 min was determined as 8600 µg/mL and the “pH (of the solubility sample)” value is on record as 5.82. The matching figures for `CCCN(CC)CCCc1ccc(C(=O)c2c(CC)cc3ccccn23)cc1` [compound 24, (2-ethylindolizin-3-yl)(4-{3-[ethyl(propyl)amino]propyl}phenyl)methanone oxalate]: 5920 µg/mL and 4.51.

On to `CCCCc1cc2ccccn2c1C(=O)c1ccc(CCCNCCC)cc1.Cl` [compound 37, (2-butylindolizin-3-yl){4-[3-(propylamino)propyl]phenyl}methanone hydrochloride], for which the solubility at 5 min was found to be 1780 µg/mL and the “pH (of the solubility sample)” value was determined as 7.14. For `CCCN(CC)CCCc1ccc(C(=O)c2c(C(C)C)cc3ccccn23)cc1` [compound 25, (4-{3-[ethyl(propyl)amino]propyl}phenyl)(2-isopropylindolizin-3-yl)methanone hydrochloride], in that order: 1710 µg/mL and 6.4. For `CCCCc1cc2ccccn2c1C(=O)c1ccc(CCCCN(CC)CC)cc1.O=C(O)C(=O)O` [compound 4, (2-butylindolizin-3-yl){4-[4-(diethylamino)butyl]phenyl}methanone oxalate], in that order: > 10000 µg/mL and 4.10.

The values above are taken from US7799799B2, “Indolizine derivatives, method for preparing same, and therapeutic compositions comprising same” (Sanofi-Aventis, priority 2005, dated 2010).
